Data reported in publication PMC11285948, “The effects of CYP2B6 inactivators on the metabolism of ciprofol” (PLOS ONE, 2024).
Where “and” joins values, the source holds several entries; their conditions need not be identical. Equal entries are not always repeated. Where two headings read alike, the source gives them in different places.

Key:
[1] = clinical trials; cited from earlier work
[2] = system: typical substrates of CYP1A2, CYP2B6, and CYP2C19; conditions: IVIVE and PBPK simulations; ref Hou et al. 9; cited from earlier work
[3] = Pharmacokinetics of ciprofol in rats pretreated with psoralen, clopidogrel or CMC; format: in vivo, rat; conditions: ciprofol 2.4 mg·kg^-1 i.v.
Protocol: 5 μL of IS solution (2.5 μg·mL^-1 D6-ciprofol) was added to 100 μL of plasma and mixed. Then, 300 μL of acetonitrile was added. The mixture was vortexed for 2 min and centrifuged for 10 min, and the supernatant was transferred to an autosampler vial for HPLC-MS/MS detection.
Twenty-four SD rats were randomly and equally divided into three groups: the control group, psoralen group and clopidogrel group. The administration scheme was as follows: the control group received 0.5% carboxy methyl cellulose by gavage (1 mL·200 g^-1), the psoralen group received 27 mg·kg^-1 psoralen by gavage, and the clopidogrel group was gavaged with 7.5 mg·kg^-1 clopidogrel. […] All rats were treated once daily for seven days. Each rat was injected with 2.4 mg·kg^-1 ciprofol via the tail vein 12 h after the end of dosing on Day 7. Rats that received ciprofol injection were placed on a flat and soft insulation pad. Timekeeping began when the rats were in the supine position and lost the righting reflex and ended when the rats could turn to the prone position successfully. The duration of loss of righting reflex (LORR) in each rat was measured. During this period, approximately 300 μL of blood was collected from the inner canthus at 2, 4, 8, 12, 16, 20, 30, 45, and 60 min after ciprofol administration, and the plasma was separated. The plasma was processed and measured as described in Section 2.4.3, and DAS 2.0 software and a noncompartmental model were used to analyse the pharmacokinetic parameters.
IBM SPSS Statistics 27 software was used to analyse the main pharmacokinetic parameters, and GraphPad Prism 8.0.2 software was used for graphical visualization. One-way ANOVA was used, and multiple comparisons were performed using the least significant difference (LSD)-T test, for which P < 0.05 indicated a significant difference.

[4] = SD, rat, plasma, intravenous, 2.4 mg/kg, rats, Clopidogrel group (7.5 mg·kg^-1 gavage daily 7 d), n = 8
[5] = SD, rat, plasma, intravenous, 2.4 mg/kg, rats, Control group (0.5% CMC gavage 7 d), n = 8
[6] = SD, rat, plasma, intravenous, 2.4 mg/kg, rats, Psoralen group (27 mg·kg^-1 gavage daily 7 d), n = 8

Structure (SMILES): CC(C)c1cccc([C@H](C)C2CC2)c1O [ciprofol]
- incidence of pain on injection relative to that caused by propofol [1]: 1/10
- predicted drug-drug interactions with typical substrates of CYP1A2, CYP2B6, and CYP2C19 [2]: did not cause drug‒drug interactions
- Tmax ([3]; Control (CMC-Na), rats No.1-8 and Mean): 2.00 min
- Tmax ([3]; Psoralen(27mg/kg)group, rats No.1-8 and Mean): 2.00 min
- CLz ([3]; Psoralen(27mg/kg)group, rats No.1-8 and Mean, 27 mg/kg): 140 mL/min/kg and 120 mL/min/kg and 130 mL/min/kg
- clearance ([3]; SD, rat, plasma, Psoralen(27mg/kg)group, rats No.1-8 and Mean, read-out: CLz): 130 mL/min/kg
- AUC(0-inf) [3, 4]: 318 ± 45 ng·h/mL
- AUC(0-t) [3, 4]: 296 ± 40.8 ng·h/mL
- Cmax [3, 4]: 1490 ± 292 ng/mL
- clearance ([3]; SD, rat, plasma, intravenous, 2.4 mg/kg, rats, Clopidogrel group (7.5 mg·kg^-1 gavage daily 7 d), n = 8, read-out: CL (converted)): 128 mL/min/kg
- MRT last ([3]; SD, rat, plasma, intravenous, 2.4 mg/kg, rats, Clopidogrel group (7.5 mg·kg^-1 gavage daily 7 d), n = 8, read-out: MRT0-t): 12.6 ± 1.2 min
- MRT inf ([3]; SD, rat, plasma, intravenous, 2.4 mg/kg, rats, Clopidogrel group (7.5 mg·kg^-1 gavage daily 7 d), n = 8, read-out: MRT0-∞): 18.6 ± 6.6 min
- Vd ([3]; SD, rat, plasma, intravenous, 2.4 mg/kg, rats, Clopidogrel group (7.5 mg·kg^-1 gavage daily 7 d), n = 8, read-out: Vd): 3.71 ± 2.03 L/kg
- half-life ([3]; SD, rat, plasma, intravenous, 2.4 mg/kg, rats, Clopidogrel group (7.5 mg·kg^-1 gavage daily 7 d), n = 8, read-out: t1/2 (converted)): 21 ± 13.8 min
- AUC(0-inf) [3, 5]: 268 ± 35.5 ng·h/mL
- AUC(0-t) [3, 5]: 260 ± 35.1 ng·h/mL
- Cmax [3, 5]: 1550 ± 173 ng/mL
- clearance ([3]; SD, rat, plasma, intravenous, 2.4 mg/kg, rats, Control group (0.5% CMC gavage 7 d), n = 8, read-out: CL (converted)): 152 mL/min/kg
- MRT last ([3]; SD, rat, plasma, intravenous, 2.4 mg/kg, rats, Control group (0.5% CMC gavage 7 d), n = 8, read-out: MRT0-t): 10.8 ± 0.6 min
- MRT inf ([3]; SD, rat, plasma, intravenous, 2.4 mg/kg, rats, Control group (0.5% CMC gavage 7 d), n = 8, read-out: MRT0-∞): 13.2 ± 2.4 min
- Vd ([3]; SD, rat, plasma, intravenous, 2.4 mg/kg, rats, Control group (0.5% CMC gavage 7 d), n = 8, read-out: Vd): 3.02 ± 0.72 L/kg
- half-life ([3]; SD, rat, plasma, intravenous, 2.4 mg/kg, rats, Control group (0.5% CMC gavage 7 d), n = 8, read-out: t1/2 (converted)): 13.8 ± 3 min
- AUC(0-inf) [3, 6]: 315 ± 23.4 ng·h/mL
- AUC(0-t) [3, 6]: 299 ± 17.6 ng·h/mL
- Cmax [3, 6]: 1490 ± 200 ng/mL
- clearance ([3]; SD, rat, plasma, intravenous, 2.4 mg/kg, rats, Psoralen group (27 mg·kg^-1 gavage daily 7 d), n = 8, read-out: CL (converted)): 128 mL/min/kg
- MRT last ([3]; SD, rat, plasma, intravenous, 2.4 mg/kg, rats, Psoralen group (27 mg·kg^-1 gavage daily 7 d), n = 8, read-out: MRT0-t): 13.8 ± 1.2 min
- MRT inf ([3]; SD, rat, plasma, intravenous, 2.4 mg/kg, rats, Psoralen group (27 mg·kg^-1 gavage daily 7 d), n = 8, read-out: MRT0-∞): 16.8 ± 3 min
- Vd ([3]; SD, rat, plasma, intravenous, 2.4 mg/kg, rats, Psoralen group (27 mg·kg^-1 gavage daily 7 d), n = 8, read-out: Vd): 2.8 ± 0.46 L/kg
- half-life ([3]; SD, rat, plasma, intravenous, 2.4 mg/kg, rats, Psoralen group (27 mg·kg^-1 gavage daily 7 d), n = 8, read-out: t1/2 (converted)): 15.6 ± 3 min
- concentration at 20 min ([3]; SD, rat, plasma, iv, 2.4 mg/kg, Control (CMC-Na), T 20.00 min, rats No.1-8 and Mean): 159 ng/mL
- concentration at 30 min ([3]; SD, rat, plasma, iv, 2.4 mg/kg, Control (CMC-Na), T 30.00 min, rats No.1-8 and Mean): 93.3 ng/mL
- concentration at 45 min ([3]; SD, rat, plasma, iv, 2.4 mg/kg, Control (CMC-Na), T 45.00 min, rats No.1-8 and Mean): 67.3 ng/mL
- Cmax ([3]; SD, rat, plasma, iv, 2.4 mg/kg, Control (CMC-Na), rats No.1-8 and Mean): 1550 ng/mL
- clearance ([3]; SD, rat, plasma, iv, 2.4 mg/kg, Control (CMC-Na), rats No.1-8 and Mean, read-out: CLz): 150 mL/min/kg
- MRT last ([3]; SD, rat, plasma, iv, 2.4 mg/kg, Control (CMC-Na), rats No.1-8 and Mean, read-out: MRT(0-t) (converted)): 10.8 min
- MRT inf ([3]; SD, rat, plasma, iv, 2.4 mg/kg, Control (CMC-Na), rats No.1-8 and Mean, read-out: MRT(0-∞) (converted)): 12.9 min
- Vd ([3]; SD, rat, plasma, iv, 2.4 mg/kg, Control (CMC-Na), rats No.1-8 and Mean, read-out: Vz): 3.02 L/kg
- half-life ([3]; SD, rat, plasma, iv, 2.4 mg/kg, Control (CMC-Na), rats No.1-8 and Mean, read-out: t1/2z): 13.8 min
- concentration at 2 min ([3]; SD, rat, plasma, iv, 2.4 mg·kg^-1, Control (CMC-Na), T 2.00 min, rats No.1-8 and Mean): 1500 ng/mL
- concentration at 8 min ([3]; SD, rat, plasma, iv, 2.4 mg·kg^-1, Control (CMC-Na), T 8.00 min, rats No.1-8 and Mean): 419 ng/mL
- concentration at 12 min ([3]; SD, rat, plasma, iv, 2.4 mg·kg^-1, Control (CMC-Na), T 12.00 min, rats No.1-8 and Mean): 312 ng/mL
- concentration at 16 min ([3]; SD, rat, plasma, iv, 2.4 mg·kg^-1, Control (CMC-Na), T 16.00 min, rats No.1-8 and Mean): 224 ng/mL
